According to patent publication US20240148821A1, “PHARMACEUTICAL USE OF CYCLIC PEPTIDE COMPOUND” (CHUGAI SEIYAKU KABUSHIKI KAISHA, priority 2021, published 2024):
Numbered stars: 1 amine (or outer) side, 2 acyl side, 3 side chain; on linkers, the order of the positions; unused ones are H or OH. Bridge positions count the residues as written; N and C are the ends. Square brackets hold non-standard residues; d marks the D form. Peptide text beside a SMILES is read from it. * marks the point of attachment. hPhe(3-Cl-4-CF3) = N[C@@H](CCc1ccc(C(F)(F)F)c(Cl)c1)C(=O)O; hPhe(3-F,4-CF3) = N[C@@H](CCc1ccc(C(F)(F)F)c(F)c1)C(=O)O; NEtPhe(4-CF3) = CCN[C@@H](Cc1ccc(C(F)(F)F)cc1)C(=O)O; hPhe(4-CF3) = N[C@@H](CCc1ccc(C(F)(F)F)cc1)C(=O)O; NMePhe(3,4-F2) = CN[C@@H](Cc1ccc(F)c(F)c1)C(=O)O; 3Oxa8azabicyclo(3.2.1)octane = C1CC2COCC1N2*; NMePhe(4-Cl) = CN[C@@H](Cc1ccc(Cl)cc1)C(=O)O; NMedβ3hAla = C[C@H](CC(=O)[*:2])N(C)[*:1]; NMeGly(cPent) = CN[C@H](C(=O)O)C1CCCC1; NMe3Pal = CN[C@@H](Cc1cccnc1)C(=O)O; NMeCha = CN[C@@H](CC1CCCCC1)C(=O)O; Hyp = O=C(O)[C@@H]1C[C@@H](O)CN1; NEtLeu = CCN[C@@H](CC(C)C)C(=O)O; NMeChg = CN[C@H](C(=O)O)C1CCCCC1; NMeF = CN[C@@H](Cc1ccccc1)C(=O)O; NMeI = CC[C@H](C)[C@H](NC)C(=O)O; Gly(cPr) = N[C@H](C(=O)O)C1CC1; NMeD = CN[C@@H](CC(=O)O)C(=O)O; NMeL = CN[C@@H](CC(C)C)C(=O)O; Tle = CC(C)(C)[C@H](N)C(=O)O; NMeNva = CCC[C@H](NC)C(=O)O; NMeV = CN[C@H](C(=O)O)C(C)C; d(β3hA) = C[C@@H](N)CC(=O)O; NMeS = CN[C@@H](CO)C(=O)O; Pip = O=C(O)[C@@H]1CCCCN1; NMeA = CN[C@@H](C)C(=O)O; Piperidide = C1CCN(*)CC1; dNMeA = CN[C@H](C)C(=O)O; Ac5c = NC1(C(=O)O)CCCC1; Aze = O=C(O)[C@@H]1CCN1; Cyclobutyl = C1CC(*)C1; Aib = CC(C)(N)C(=O)O; Sar = CNCC(=O)O; Propyl = CCC*

These compounds were tested against protein-protein interaction between Kras and SOS1 (biotin-tagged human Kras loaded with GDP, His-tagged human SOS1) (Homo sapiens (Human), UniProt P01116, G12D) (assay: Protein-protein interaction inhibition between Kras and SOS1 (KrasG12D-SOS PPI) using AlphaScreen). Details: AlphaScreen; biotin-tagged human Kras loaded with GDP, His-tagged human SOS1; read-out: KRAS G12D-SOS PPI IC50.
Type: biochemical
Work on `CC[C@H](C)[C@@H]1NC(=O)[C@@H]2CCCCN2C(=O)C[C@@H](C)NC(=O)[C@H](CC(C)C)N(C)C(=O)[C@H](Cc2ccccc2)N(C)C(=O)[C@@H]2CCCN2C(=O)[C@H](CCc2ccc(C(F)(F)F)cc2)NC(=O)CN(C)C(=O)[C@H](Cc2ccc(Cl)cc2)N(C)C(=O)CN(C)C(=O)CN(C)C1=O` [Compound 632] (cyclo(I[Sar][Sar][NMePhe(4-Cl)][Sar][hPhe(4-CF3)]P[NMeF][NMeL][d(β3hA)][Pip])) yielded an IC50 of 73 nM.
Compound `CC[C@H](C)[C@@H]1NC(=O)[C@H](COC2CCC2)N(C)C(=O)C[C@@H](C(=O)N2CCCCC2)N(C)C(=O)[C@H](C(C)C)N(C)C(=O)C2(CCCC2)NC(=O)[C@@H]2CCCN2C(=O)[C@H](CCc2ccc(C(F)(F)F)c(Cl)c2)NC(=O)CN(C)C(=O)[C@H](CC2CCCCC2)N(C)C(=O)[C@@H]2CCN2C(=O)[C@H](C)N(C)C1=O` [Compound 755] ([NMeS](Cyclobutyl)I[NMeA][Aze][NMeCha][Sar][hPhe(3-Cl-4-CF3)]P[Ac5c][NMeV][NMeD]-Piperidide; lactam N-11) has an IC50 of 5.6 nM.
`CCCOC[C@H]1C(=O)N(C)CC(=O)N[C@@H](CCc2ccc(C(F)(F)F)c(F)c2)C(=O)N2CCC[C@H]2C(=O)NC2(CCCC2)C(=O)N(C)[C@@H](C2CCCC2)C(=O)N(C)[C@H](C(=O)N2CCCCC2)CC(=O)N(C)[C@@H](CC(C)C)C(=O)N[C@@H]([C@@H](C)CC)C(=O)N(C)[C@@H](C)C(=O)N2CC[C@H]2C(=O)N1C` [Compound 1029] ([NMeL]I[NMeA][Aze][NMeS](Propyl)[Sar][hPhe(3-F,4-CF3)]P[Ac5c][NMeGly(cPent)][NMeD]-Piperidide; lactam N-11) showed an IC50 of 1.4 nM.
With `CC[C@H](C)[C@@H]1NC(=O)[C@H](C)N(C)C(=O)C[C@@H](C)NC(=O)[C@H](C2CCCC2)N(C)C(=O)C2(CCCC2)NC(=O)[C@@H]2CCCN2C(=O)[C@H](CCc2ccc(C(F)(F)F)c(Cl)c2)NC(=O)[C@@H](C)N(C)C(=O)[C@H](Cc2ccc(F)c(F)c2)N(C)C(=O)[C@@H]2CCN2C(=O)[C@H](C)N(C)C1=O` [Compound 310] (cyclo([Ac5c][NMeGly(cPent)][d(β3hA)][NMeA]I[NMeA][Aze][NMePhe(3,4-F2)][dNMeA][hPhe(3-Cl-4-CF3)]P)) the IC50 was 96 nM.
Work on `CC[C@H](C)[C@@H]1NC(=O)[C@H](C)N(C)C(=O)C[C@@H](C)NC(=O)[C@H](CC(C)C)N(C)C(=O)[C@H](Cc2ccccc2)N(C)C(=O)[C@H](C(C)(C)C)NC(=O)[C@H](CCc2ccc(C(F)(F)F)cc2)NC(=O)CN(C)C(=O)[C@H](Cc2ccc(Cl)cc2)N(C)C(=O)CN(C)C(=O)CN(C)C1=O` [Compound 764] (cyclo(I[Sar][Sar][NMePhe(4-Cl)][Sar][hPhe(4-CF3)][Tle][NMeF][NMeL][d(β3hA)][NMeA])) yielded an IC50 of 83 nM.
For `CCCOC[C@H]1C(=O)N(C)CC(=O)N[C@@H](CCc2ccc(C(F)(F)F)c(Cl)c2)C(=O)N2CCC[C@H]2C(=O)NC2(CCCC2)C(=O)N(C)[C@@H](C2CCCC2)C(=O)N(C)[C@H](C(=O)N2C3CCC2COC3)CC(=O)N(CC)[C@@H](CC(C)C)C(=O)N[C@@H]([C@@H](C)CC)C(=O)N[C@@H](C)C(=O)N2CC[C@H]2C(=O)N1C` [Compound 1167] ([NEtLeu]IA[Aze][NMeS](Propyl)[Sar][hPhe(3-Cl-4-CF3)]P[Ac5c][NMeGly(cPent)][NMeD]-{3Oxa8azabicyclo(3.2.1)octane}; lactam N-11), the IC50 was 8.7 nM.
Work on `CC[C@H](C)[C@@H]1NC(=O)[C@H](C)N(C)C(=O)C[C@@H](C(=O)N2CCCCC2)N(C)C(=O)[C@H](C2CCCCC2)N(C)C(=O)C2(CCCC2)NC(=O)[C@H](Cc2cccnc2)N(C)C(=O)[C@H](CCc2ccc(C(F)(F)F)c(Cl)c2)NC(=O)CN(C)C(=O)[C@H](CC2CCCCC2)N(C)C(=O)CN(C)C(=O)CN(C)C1=O` [Compound 1012] ([NMeA]I[Sar][Sar][NMeCha][Sar][hPhe(3-Cl-4-CF3)][NMe3Pal][Ac5c][NMeChg][NMeD]-Piperidide; lactam N-11) yielded an IC50 of 1.2 nM.
For `CCO[C@@H]1C[C@H]2C(=O)NC3(CCCC3)C(=O)N(C)[C@@H]([C@@H](C)CC)C(=O)N(C)[C@H](C)CC(=O)N(C)[C@@H](CC(C)C)C(=O)N[C@@H]([C@@H](C)CC)C(=O)N[C@@H](C)C(=O)N3CC[C@H]3C(=O)N(CC)[C@@H](Cc3ccc(C(F)(F)F)cc3)C(=O)N(C)CC(=O)N[C@@H](CCc3ccc(C(F)(F)F)c(Cl)c3)C(=O)N2C1` [Compound 673] (cyclo(A[Aze][NEtPhe(4-CF3)][Sar][hPhe(3-Cl-4-CF3)][Hyp](Et)[Ac5c][NMeI][NMedβ3hAla][NMeL]I)), the IC50 was 11 nM.
For `CC[C@H](C)[C@@H]1NC(=O)[C@H](C)N(C)C(=O)C[C@@H](C)NC(=O)[C@H](CC(C)C)N(C)C(=O)[C@H](Cc2ccccc2)N(C)C(=O)[C@H](C)N(C)C(=O)[C@H](CCc2ccc(C(F)(F)F)cc2)NC(=O)CN(C)C(=O)[C@H](Cc2ccc(Cl)cc2)N(C)C(=O)CN(C)C(=O)CN(C)C1=O` [Compound 978] (cyclo(I[Sar][Sar][NMePhe(4-Cl)][Sar][hPhe(4-CF3)][NMeA][NMeF][NMeL][d(β3hA)][NMeA])), the IC50 was 170 nM.
Compound `CCO[C@@H]1C[C@H]2C(=O)N(C)[C@@H](Cc3ccccc3)C(=O)N(C)[C@@H](CC(C)C)C(=O)N[C@H](C)CC(=O)N(C)[C@@H](C)C(=O)N[C@@H]([C@@H](C)CC)C(=O)N(C)CC(=O)N(C)CC(=O)N(C)[C@@H](Cc3ccc(Cl)cc3)C(=O)N(C)CC(=O)N[C@@H](CCc3ccc(C(F)(F)F)cc3)C(=O)N2C1` [Compound 322] (cyclo([Hyp](Et)[NMeF][NMeL][d(β3hA)][NMeA]I[Sar][Sar][NMePhe(4-Cl)][Sar][hPhe(4-CF3)])) has an IC50 of 31 nM.
With `CC(C)C[C@H]1C(=O)N[C@@H](C2CC2)C(=O)N(C)[C@@H](C)C(=O)N2CC[C@H]2C(=O)N(C)[C@@H](CC2CCCCC2)C(=O)N(C)CC(=O)N[C@@H](CCc2ccc(C(F)(F)F)c(Cl)c2)C(=O)N2CCC[C@H]2C(=O)NC2(CCCC2)C(=O)N(C)[C@@H](C(C)C)C(=O)N[C@H](C)CC(=O)N1C` [Compound 490] (cyclo([Ac5c][NMeV][d(β3hA)][NMeL][Gly(cPr)][NMeA][Aze][NMeCha][Sar][hPhe(3-Cl-4-CF3)]P)) the IC50 was 240 nM.
In the case of `CCC[C@H]1C(=O)N[C@@H]([C@@H](C)CC)C(=O)N(C)[C@@H](C)C(=O)N2CC[C@H]2C(=O)N(C)[C@@H](CC2CCCCC2)C(=O)N(C)CC(=O)N[C@@H](CCc2ccc(C(F)(F)F)c(Cl)c2)C(=O)N2CCC[C@H]2C(=O)NC2(CCCC2)C(=O)N(C)[C@@H](C(C)C)C(=O)N(C)[C@H](C(=O)N2CCCCC2)CC(=O)N1C` [Compound 1639] ([NMeNva]I[NMeA][Aze][NMeCha][Sar][hPhe(3-Cl-4-CF3)]P[Ac5c][NMeV][NMeD]-Piperidide; lactam N-11), the IC50 is reported as 5.8 nM.
In the case of `CC[C@H](C)[C@@H]1NC(=O)[C@H](CC2CCCCC2)N(C)C(=O)C[C@@H](C)NC(=O)[C@H](CC(C)C)N(C)C(=O)C(C)(C)NC(=O)[C@H](CC(C)C)N(C)C(=O)[C@H](CCc2ccc(C(F)(F)F)cc2)NC(=O)CN(C)C(=O)[C@H](Cc2ccc(Cl)cc2)N(C)C(=O)CN(C)C(=O)CN(C)C1=O` [Compound 615] (cyclo([Aib][NMeL][d(β3hA)][NMeCha]I[Sar][Sar][NMePhe(4-Cl)][Sar][hPhe(4-CF3)][NMeL])), the IC50 is reported as 220 nM.
